# Assay results from article PMC9252919, “Controlled masking and targeted release of redox-cycling ortho-quinones via a C–C bond-cleaving 1,6-elimination” (Nature Chemistry, 2022).
# Read-outs that look alike come from different tables or passages of the source.
# Columns and labels:
# [1] = Penicillin-G-amidase-mediated kinetic analysis of elimination at physiological pH (HPLC); assay type: physicochemical; conditions: pH 7.4, 37 °C
# Description: Stocks of 2-phenylacetyl-para-aminobenzyl ketol were made up in DMF at a concentration of 10 mM. For a reaction, 17.5 µl of ketol stock was added to 17.5 µl of a 10 mM stock of internal standard in DMF and 310 µl of PBS at pH 7.4. To initiate a reaction, 5 µl of a suspension of penicillin G amidase (PenG, Sigma-Aldrich enzyme 76427, 5–10 U mg^−1) was added. In control samples 5 µl of PBS was added in place of the enzyme. Test and control samples were then incubated at 37 °C with shaking. At the recorded time points, 20 µl aliquots of the reactions were analysed by HPLC (254 nm, ThermoFisher U3000). HPLC column: Phenomenex Kinetex C18, 5 µm, 50 × 4.6 mm, 100 Å; flow, 1 ml min^−1. Gradient and solvent system for assay with 2-phenylacetyl-PAB-PhQ 21: A = H2O, B = acetonitrile, t = 0–1 min 0% B, t = 1–10 min 0–100% B, t = 10–11 min 0% B. Gradient and solvent system for assay with 2-phenylacetyl-PAB-BL 22 and 2-phenylacetyl-PAB-DN 23: A = H2O + 0.1% formic acid, B = acetonitrile + 0.1% formic acid, t = 0–1 min 0% B, t = 1–10 min 0–40% B, t = 10–16 min 40–50% B, t = 16.1 min 100% B, t = 16.1–18 min 100% B, t = 18–20 min 0% B. Peaks were identified by LC–MS analysis and comparison with pure compounds. Values described represent peak area (mAU × min) divided by peak area of internal standard. Recorded values are averages of three independent reactions and error bars display standard errors of the mean. Fitting was performed using GraphPad Prism 8 software. Rate and half-life measurements were calculated by consumption of intermediate para-aminobenzyl ketol and formation of product quinone.
# [2] = pH-rate aqueous kinetic analysis of fragmentation (HPLC); assay type: physicochemical; conditions: for kobs of elimination at pH 6: pH 6, 37 °C; for kobs of elimination at pH 6 / kobs of elimination at pH 3: citrate-phosphate buffer; for kobs of elimination at pH 3: pH 3, 37 °C
# Description: pH-rate analysis was performed by adaption of the PenG assay. To obtain deprotected para-aminobenzyl ketol species, 2-phenylacetyl protected ketol was dissolved in PBS with 33% DMF to a concentration of 3.3 mM. Then 20 µl of a stock solution of PenG was added to 600 µl of this stock and incubated for 20 min at 37 °C, after which 20 µl of a 100 mM stock of internal standard in DMSO was added. Reactions were then set up immediately. For a reaction, 10 µl of the aminobenzyl ketol/standard stock was added to 190 µl of citrate–phosphate buffer at the specified pH to obtain an aqueous solution containing 1.8% DMSO. Test samples were incubated at 37 °C with shaking. At the recorded time points, 20 µl aliquots of the reactions were analysed by HPLC (254 nm, ThermoFisher U3000). HPLC conditions: column Phenomenex Kinetex C18 5 µm, 50 × 4.6 mm, 100 Å; solvent system A = H2O + 0.1% formic acid, B = acetonitrile + 0.1% formic acid; flow, 1 ml min^−1. Gradient for assay with PAB-PhQ 7: t = 0–1 min 0% B, t = 1–10 min 0–100% B, t = 10–11 min 0% B. Gradient for assay with PAB-BL 10 and PAB-DN 18: t = 0–1 min 0% B, t = 1–10 min 0–40% B, t = 10–16 min 40–50% B, t = 16.1 min 100% B, t = 16.1–18 min 100% B, t = 18–20 min 0% B. Values described represent peak area (mAU × min) divided by peak area of internal standard. Where necessary, peaks were deconvoluted using Origin fitting software. Recorded values are averages of three independent reactions and error bars display standard errors of the mean. Values were fitted using GraphPad Prism software. Rate and half-life measurements were calculated based on consumption of the para-aminobenzyl ketol species.
# [3] = 1H NMR kinetic analysis of elimination of PAB-PhQ in MeOD; assay type: physicochemical
# Description: Kinetics of the release of PhQ 4 from PAB-PhQ 7 were monitored by ^1H NMR at 25 °C. Analysis was performed in MeOD due to poor solubility of the compound in H2O. To form the active eliminating species, Boc-PAB-PhQ 6 was dissolved in dichloromethane/trifluoroacetic acid 4:1 at 0 °C and stirred for 30 min, upon which the reaction appeared complete by TLC. Product 7 was dried in vacuo before being dissolved in MeOD. The basicity of the solution was altered by addition of triethylamine (drops). pH was estimated using pH paper. pH values are only indicative because analysis is performed in MeOD. Elimination rates were determined from the aromatic region. Kinetics were measured by monitoring the integral of one peak, normalized to the number of protons present (that is, the integral of 1H), divided by the total integral of the aromatic region (δ = 6.2–8.6 ppm, that is, the integral of 12 H). Analysis was performed using Mestrenova v.14.2.0 processing software and rate constants were calculated using GraphPad Prism v.8.0 software.
# ovine blood = assay: Methaemoglobin analysis in ovine blood; parameters: species or system sheep; conditions: in vitro ovine blood model, 1 h incubation
# Description: Defibrinated Oxoid sheep’s blood (ThermoScientific) was diluted to a 5% v/v suspension in PBS pH 7.4. In a 96-well microtitre plate, 150 µl of blood suspension was added to 50 µl of serially diluted compound in PBS containing a 4× stock of each compound of interest. Serial dilution of compounds from DMSO stocks into PBS was performed to achieve an in-plate DMSO concentration of 0.1%. PBS buffer alone was used as a negative control. The plate was incubated for the specified time at 37 °C. The plate was then centrifuged at 3,500 r.p.m. for 5 min. The supernatant was removed and cells lysed by resuspension in 100 µl of a solution of Triton-X-100 (1%) in PBS. Following this, 80 µl of lysed cell contents were transferred to a second microtitre plate for ultraviolet measurement. Ultraviolet absorbance was measured immediately at 630 nm (MiniMax i3x Imager, Molecular Devices). Methaemoglobin increase was determined by A630−A6300/A6300×100 , where A630 is the absorbance of the test well at 630 nm, and A6300 is the absorbance of the negative control at 630 nm.
# recombinant human 5-LO = target: T1, recombinant human 5-LO (Homo sapiens, UniProt P09917); assay: Cell-free activity assay for recombinant human 5-LO; assay type: biochemical
# T1 construct: made in house; host or cells: Escherichia coli BL21
# T1 sequence (P09917 1-674): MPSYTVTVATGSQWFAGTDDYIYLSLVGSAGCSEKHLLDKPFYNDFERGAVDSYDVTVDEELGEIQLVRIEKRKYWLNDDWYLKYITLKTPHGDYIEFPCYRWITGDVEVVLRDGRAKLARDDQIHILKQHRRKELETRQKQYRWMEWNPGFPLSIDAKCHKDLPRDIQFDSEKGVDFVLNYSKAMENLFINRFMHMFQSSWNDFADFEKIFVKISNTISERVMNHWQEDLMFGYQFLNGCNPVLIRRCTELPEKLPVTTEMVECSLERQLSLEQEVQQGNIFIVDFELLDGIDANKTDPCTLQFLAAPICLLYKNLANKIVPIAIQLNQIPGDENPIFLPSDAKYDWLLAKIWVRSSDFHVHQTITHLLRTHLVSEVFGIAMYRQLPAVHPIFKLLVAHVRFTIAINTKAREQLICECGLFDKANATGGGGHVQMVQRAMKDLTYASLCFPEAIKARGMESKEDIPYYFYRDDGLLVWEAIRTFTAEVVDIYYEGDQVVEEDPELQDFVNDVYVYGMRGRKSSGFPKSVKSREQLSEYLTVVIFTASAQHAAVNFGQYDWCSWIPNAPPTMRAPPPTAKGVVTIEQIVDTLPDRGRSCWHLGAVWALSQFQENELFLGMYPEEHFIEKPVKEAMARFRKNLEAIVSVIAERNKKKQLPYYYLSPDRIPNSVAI
# Description: Escherichia coli (BL21) was transformed with pT3-5-LO plasmid, and recombinant 5-LO protein was expressed at 30 °C as described. Cells were lysed in 50 mM triethanolamine/HCl pH 8.0, 5 mM EDTA, 1 mM phenylmethanesulfonyl fluoride, soybean trypsin inhibitor (60 μg ml^−1) and lysozyme (1 mg ml^−1), homogenized by sonication (3 × 15 s) and centrifuged at 40,000g for 20 min at 4 °C. The 40,000g supernatant (S40) was applied to an ATP–agarose column to partially purify 5-LO as described. Aliquots of semipurified 5-LO (0.5 μg) were diluted with 1 ml ice-cold PBS containing 1 mM EDTA. Samples were preincubated with the test compound or vehicle (0.1% DMSO) with or without 1 mM DTT, as indicated. After 10 min at 4 °C, samples were prewarmed for 30 s at 37 °C, and 2 mM CaCl2 plus 20 μM arachidonic acid was added to start the formation of 5-LO products. After 10 min, the reaction was stopped by addition of 1 volume of ice-cold methanol, and the formed 5-LO products were analysed by reverse-phase HPLC as described. 5-LO products include the all-trans isomers of LTB4 (trLTB4 isomers) and 5(S)-hydroperoxy-6-trans-8,11,14-cis-eicosatetraenoic acid and its corresponding alcohol 5(S)-hydroxy-6-trans-8,11,14-cis-eicosatetraenoic acid.
# [4] = In vitro redox-cycling phenol red/horseradish peroxidase reporter assay; conditions: phenol red/HRP with DTT, up to 25 μM
# Description: The in vitro redox-cycling capability of compounds was assessed by phenol red/horseradish peroxidase (HRP) assay by adaption of a previously described protocol. Briefly, stocks were prepared as follows: (1) DTT to a concentration of […] in PBS pH 7.4 buffer; (2) compound stocks in PBS pH 7.4 buffer to 3× the desired concentration by 1,000× dilution of DMSO stocks; (3) a stock of phenol red/HRP detection reagent containing 300 µg ml^−1 phenol red and 180 µg ml^−1 HRP enzyme in PBS pH 7.4 buffer; (4) a stock of 1 M NaOH in water; (5) a stock of 100 µM H2O2 in PBS prepared by addition of a 30% solution of H2O2 in water into 1,000 µl of PBS. Into each well of a 96-well clear flat-bottomed plate was then added 40 µl of compound stock in PBS followed by 40 µl of DTT stock, followed immediately by 40 µl of phenol red/HRP reagent. A positive control with 100 µM H2O2 added in place of compound was included. The plate was incubated in the dark at room temperature for 15 min. Following this, 20 µl of 1 M NaOH was added to each well to terminate the reaction. Absorbance was immediately measured at 610 nm (MiniMax i3x Imager, Molecular Devices). Absorbance of treated wells was normalized to control wells treated with PBS only (zero redox cycling).
# AML cell line MOLM-13 = assay: Viability assay with small-molecule prodrugs, MOLM-13; assay type: cell-based; conditions: 5 µM, 24 h
# Description: For assays assessing cytotoxicity of β-lapachone versus small-molecule prodrugs, antibodies and ADCs, suspension cells were plated into 24-well plates at a density of 2.5 × 10^5 cells ml^−1 in 240 µl. Stocks of ADC or antibody in PBS were normalized to 12.5 µM. Serial dilutions of compound were made up in PBS. Then, 60 µl of each stock of either PBS or compound in PBS was added to the cells to achieve the desired final concentration. After the specified incubation time, toxicity was assessed by counting of live cells using the trypan blue exclusion method with a Countess II Automated Cell Counter (ThermoFisher Scientific) according to the manufacturer’s instructions. Cell viability was determined by dividing the average live cell number of treated wells by the average live cell number for control wells treated with PBS only. IC50 values were calculated using GraphPad Prism software. Note: for the assay performed over 96 h, 5% human serum was added to media instead of 10% fetal bovine serum, to limit non-specific antibody internalisation. This had little effect on ADC toxicity.
# [5] = 25 °C, moderately acidic methanolic solution
molecule,measurement,setting,value
2-phenylacetyl-PAB-PhQ [Compound 21],"kobs, formation of PhQ 4 following addition of penicillin G amidase to 21",[1],1.15 ± 0.66 × 10^–5 s^–1
same,stability without added enzyme,[1]; no penicillin G amidase,stable
"Nc1ccc(CC2(O)C(=O)c3ccccc3-c3ccccc32)cc1 (stereo not drawn) [Compound 7, para-aminobenzyl phenanthrene-ketol]","kobs, elimination of 7",[1]; 7 generated enzymatically from 21,9.72 ± 2.88 × 10^–6 s^–1
same,pH at which elimination rate peaks,[2]; 37 °C,5–6
same,kobs of elimination at pH 6,[2],1.7 ± 0.3 × 10^–5 s^–1
same,"kobs, rate of consumption of 7",[3]; [5],6.18 ± 0.12 × 10^–5 s^–1
same,"kobs, rate of formation of product 4 from 7",[3]; [5],6.55 ± 0.22 × 10^–5 s^–1
same,time to complete release of 4 from 7,[3]; [5],≤ 20 h
same,completeness of release of 4 from 7,[3]; basic conditions,not complete after 40 h
same,"kobs, appearance of 4 from 7","[3]; basic conditions, MeOD with triethylamine",1.16 ± 0.18 × 10^–6 s^–1
CC1(C)CCC2=C(O1)c1ccccc1C(O)(Cc1ccc(N)cc1)C2=O (stereo not drawn) [Compound 10],pH at which elimination rate peaks,[2]; 37 °C,3
same,kobs of elimination at pH 3,[2],1.1 ± 0.1 × 10^–5 s^–1
same,kobs of elimination at pH 6,[2],2.1 ± 0.8 × 10^–7 s^–1
same,elimination resulting in formation of 1,"[2]; pH ≥6, within 72 h, 37 °C",Negligible
CC1OC2=C(C(=O)C(O)(Cc3ccc(N)cc3)c3ccccc32)C1(C)C (stereo not drawn) [Compound 18],kobs of elimination at pH 3,[2],9.1 ± 0.2 × 10^–6 s^–1
same,kobs of elimination at pH 6,[2],7.4 ± 1.1 × 10^–7 s^–1
CC1(C)CCc2c3c(c4ccccc4c2O1)OCCO3 [Compound 25],methaemoglobin formation,ovine blood,did not occur
same,IC50,"recombinant human 5-LO; with DTT (1 mM), read-out: IC50, 5-LO inhibition with DTT",11.5 ± 2.2 µM
same,IC50,"recombinant human 5-LO; without DTT, read-out: IC50, 5-LO inhibition without DTT",11.3 ± 1.1 µM
same,in vitro redox activity,[4],no measurable redox activity
CC(=O)Oc1c2c(c3ccccc3c1OC(C)=O)OC(C)(C)CC2 [Compound 29],toxicity to MOLM-13 at 5 µM,AML cell line MOLM-13,complete cell death
